Values of other authors as cited in patent EP4286484B1, “AQUEOUS PRETREATMENT LIQUID, INK SET, PRINTED ITEM, AND SEPARATION METHOD” (priority 2022, dated 2023).

Details: anhydrous calcium salt of the named counter anion

O=C([O-])c1ccccc1.O=C([O-])c1ccccc1.[Ca+2] [benzoate ion]
solubility of the corresponding anhydrous calcium salt in 100 g of water at 20°C: 2 g
